In ChEMBL document CHEMBL4602719, “Discovery of Potent, Selective, and Orally Bioavailable Inhibitors of USP7 with In Vivo Antitumor Activity” (J Med Chem, 2020):

Assays:
[1] = target: Ubiquitin carboxyl-terminal hydrolase 7 (Homo sapiens, UniProt Q93009); assay: Inhibition of USP7 in human RKO cells transfected with p53 luciferase reporter vector assessed as increase in p53-dependent luciferase activity measured after 18 hrs by BrightGlo luciferase assay; assay type: cell-based
[2] = target: Ubiquitin carboxyl-terminal hydrolase 25 (Homo sapiens, UniProt Q9UHP3); assay: Inhibition of human GST-tagged USP25 expressed in Escherichia coli assessed as cleavage of Ubiquitin-Rhodamine110-glycine to Ubiquitin and Rhodamine110-glycine using Ubiquitin-Rhodamine110-glycine as substrate by fluorescence based analysis
[3] = target: Ataxin-3 (Homo sapiens, UniProt P54252); assay: Inhibition of human GST-tagged Ataxin-3 expressed in Escherichia coli assessed as cleavage of Ubiquitin-Rhodamine110-glycine to Ubiquitin and Rhodamine110-glycine using Ubiquitin-Rhodamine110-glycine as substrate by fluorescence based analysis
[4] = target: T1, Ubiquitin carboxyl-terminal hydrolase 1 (Homo sapiens, UniProt O94782); assay: Inhibition of His6-tagged human USP1 expressed in insect Sf21 cells coexpressing untagged UAF1 assessed as cleavage of Ubiquitin-Rhodamine110-glycine to Ubiquitin and Rhodamine110-glycine using Ubiquitin-Rhodamine110-glycine as substrate by fluorescence based analysis
T1 sequence (O94782 whole entry): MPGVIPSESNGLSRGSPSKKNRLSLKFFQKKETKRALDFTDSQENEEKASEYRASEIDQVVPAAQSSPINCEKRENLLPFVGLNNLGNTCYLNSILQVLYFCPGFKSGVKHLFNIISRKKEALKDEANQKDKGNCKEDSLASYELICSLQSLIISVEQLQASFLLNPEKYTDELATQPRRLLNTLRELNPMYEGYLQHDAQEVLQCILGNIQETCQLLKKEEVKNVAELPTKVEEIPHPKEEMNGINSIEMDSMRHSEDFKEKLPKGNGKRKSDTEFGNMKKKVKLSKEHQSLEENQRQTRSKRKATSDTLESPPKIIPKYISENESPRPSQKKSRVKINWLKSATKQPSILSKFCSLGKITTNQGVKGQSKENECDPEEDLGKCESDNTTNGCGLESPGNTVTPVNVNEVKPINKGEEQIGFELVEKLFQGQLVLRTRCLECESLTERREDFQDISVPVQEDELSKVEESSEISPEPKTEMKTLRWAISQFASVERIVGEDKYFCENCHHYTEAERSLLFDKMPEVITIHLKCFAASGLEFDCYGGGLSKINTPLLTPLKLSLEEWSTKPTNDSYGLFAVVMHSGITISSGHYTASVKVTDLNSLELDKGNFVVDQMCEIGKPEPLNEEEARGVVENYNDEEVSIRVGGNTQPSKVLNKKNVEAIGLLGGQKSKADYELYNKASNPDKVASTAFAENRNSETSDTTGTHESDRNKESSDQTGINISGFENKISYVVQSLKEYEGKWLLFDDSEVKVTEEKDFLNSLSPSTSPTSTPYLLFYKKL

[5] = target: Ubiquitin carboxyl-terminal hydrolase BAP1 (Homo sapiens, UniProt Q92560); assay: Inhibition of human GST-tagged BAP1 expressed in Escherichia coli assessed as cleavage of Ubiquitin-Rhodamine110-glycine to Ubiquitin and Rhodamine110-glycine using Ubiquitin-Rhodamine110-glycine as substrate by fluorescence based analysis
[6] = target: Ubiquitin thioesterase OTU1 (Homo sapiens, UniProt Q5VVQ6); assay: Inhibition of human GST-tagged OTU1 expressed in Escherichia coli assessed as cleavage of Ubiquitin-Rhodamine110-glycine to Ubiquitin and Rhodamine110-glycine using Ubiquitin-Rhodamine110-glycine as substrate by fluorescence based analysis
[7] = target: Ubiquitin carboxyl-terminal hydrolase 20 (Homo sapiens, UniProt Q9Y2K6); assay: Inhibition of human GST-tagged USP20 expressed in Sf21 insect cells assessed as cleavage of Ubiquitin-Rhodamine110-glycine to Ubiquitin and Rhodamine110-glycine using Ubiquitin-Rhodamine110-glycine as substrate by fluorescence based analysis
[8] = target: Ubiquitin carboxyl-terminal hydrolase 15 (Homo sapiens, UniProt Q9Y4E8); assay: Inhibition of human USP15 isoform 2 expressed in Escherichia coli assessed as cleavage of Ubiquitin-Rhodamine110-glycine to Ubiquitin and Rhodamine110-glycine using Ubiquitin-Rhodamine110-glycine as substrate by fluorescence based analysis
[9] = target: Ubiquitin carboxyl-terminal hydrolase 19 (Homo sapiens, UniProt O94966); assay: Inhibition of human GST-tagged USP19 (1 to 1290 residues) expressed in Escherichia coli assessed as cleavage of Ubiquitin-Rhodamine110-glycine to Ubiquitin and Rhodamine110-glycine using Ubiquitin-Rhodamine110-glycine as substrate by fluorescence based analysis
Sequence of Ubiquitin carboxyl-terminal hydrolase 19 (O94966 whole entry, the tested form may be a part): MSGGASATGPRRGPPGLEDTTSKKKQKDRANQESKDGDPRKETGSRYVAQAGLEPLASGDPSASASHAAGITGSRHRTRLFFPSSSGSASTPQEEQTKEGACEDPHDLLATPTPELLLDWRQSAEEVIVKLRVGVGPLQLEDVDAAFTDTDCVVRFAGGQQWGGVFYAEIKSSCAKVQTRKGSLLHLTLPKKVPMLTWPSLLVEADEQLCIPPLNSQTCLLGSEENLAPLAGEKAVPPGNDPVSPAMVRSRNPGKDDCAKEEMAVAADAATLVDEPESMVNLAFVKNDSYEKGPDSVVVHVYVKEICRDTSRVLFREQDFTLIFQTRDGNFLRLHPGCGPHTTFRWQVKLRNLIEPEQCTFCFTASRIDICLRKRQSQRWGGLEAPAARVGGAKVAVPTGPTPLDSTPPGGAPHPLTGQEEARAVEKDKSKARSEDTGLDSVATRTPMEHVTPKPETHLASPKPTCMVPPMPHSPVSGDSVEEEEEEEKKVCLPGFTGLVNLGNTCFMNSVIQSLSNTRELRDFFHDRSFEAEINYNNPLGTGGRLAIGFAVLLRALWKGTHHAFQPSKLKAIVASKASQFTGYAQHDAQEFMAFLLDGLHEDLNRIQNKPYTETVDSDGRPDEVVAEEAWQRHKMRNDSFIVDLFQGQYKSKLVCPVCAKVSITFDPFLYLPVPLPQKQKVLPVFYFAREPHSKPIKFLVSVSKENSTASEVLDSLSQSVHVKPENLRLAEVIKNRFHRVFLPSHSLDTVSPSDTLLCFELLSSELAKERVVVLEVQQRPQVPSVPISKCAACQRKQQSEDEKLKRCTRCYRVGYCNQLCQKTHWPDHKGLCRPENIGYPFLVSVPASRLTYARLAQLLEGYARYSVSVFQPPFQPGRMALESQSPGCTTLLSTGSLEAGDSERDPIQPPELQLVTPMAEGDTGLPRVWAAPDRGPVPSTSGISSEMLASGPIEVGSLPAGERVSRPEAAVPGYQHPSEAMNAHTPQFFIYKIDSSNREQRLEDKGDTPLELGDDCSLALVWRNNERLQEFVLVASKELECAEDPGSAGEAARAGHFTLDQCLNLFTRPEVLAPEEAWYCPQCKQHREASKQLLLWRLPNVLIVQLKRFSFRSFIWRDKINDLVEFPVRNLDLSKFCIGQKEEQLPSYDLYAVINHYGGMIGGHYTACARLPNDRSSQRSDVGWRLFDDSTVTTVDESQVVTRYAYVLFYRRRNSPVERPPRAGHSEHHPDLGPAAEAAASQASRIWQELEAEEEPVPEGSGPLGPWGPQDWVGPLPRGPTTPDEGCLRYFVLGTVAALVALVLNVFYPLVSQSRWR

Sequence of Ubiquitin carboxyl-terminal hydrolase 25 (Q9UHP3 whole entry): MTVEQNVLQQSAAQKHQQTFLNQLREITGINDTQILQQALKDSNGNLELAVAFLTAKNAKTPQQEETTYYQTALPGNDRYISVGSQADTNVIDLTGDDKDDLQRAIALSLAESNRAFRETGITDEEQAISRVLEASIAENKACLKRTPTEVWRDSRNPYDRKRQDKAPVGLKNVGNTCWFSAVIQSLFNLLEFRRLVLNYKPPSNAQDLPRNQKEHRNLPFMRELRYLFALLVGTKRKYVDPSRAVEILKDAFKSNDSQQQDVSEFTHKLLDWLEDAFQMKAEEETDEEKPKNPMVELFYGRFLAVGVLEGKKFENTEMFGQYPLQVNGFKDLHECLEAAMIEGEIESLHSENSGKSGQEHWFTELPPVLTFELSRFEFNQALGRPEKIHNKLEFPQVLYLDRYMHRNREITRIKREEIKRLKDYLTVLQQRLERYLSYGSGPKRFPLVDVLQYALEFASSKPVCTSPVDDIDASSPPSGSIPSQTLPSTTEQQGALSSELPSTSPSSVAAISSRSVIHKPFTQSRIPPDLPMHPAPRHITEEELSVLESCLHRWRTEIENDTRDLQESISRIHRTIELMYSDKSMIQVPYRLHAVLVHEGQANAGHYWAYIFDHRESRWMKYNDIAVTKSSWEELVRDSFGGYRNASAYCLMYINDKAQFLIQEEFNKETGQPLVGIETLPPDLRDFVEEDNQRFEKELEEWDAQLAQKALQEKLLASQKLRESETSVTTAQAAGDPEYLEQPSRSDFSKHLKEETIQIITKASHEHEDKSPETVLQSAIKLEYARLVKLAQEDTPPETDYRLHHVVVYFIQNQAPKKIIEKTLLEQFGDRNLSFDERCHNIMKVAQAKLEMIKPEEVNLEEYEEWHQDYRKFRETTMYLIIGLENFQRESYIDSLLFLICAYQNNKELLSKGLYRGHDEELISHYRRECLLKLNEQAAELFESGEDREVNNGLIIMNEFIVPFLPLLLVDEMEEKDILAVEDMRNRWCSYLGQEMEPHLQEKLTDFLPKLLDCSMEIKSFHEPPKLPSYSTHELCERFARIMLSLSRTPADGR
Sequence of Ubiquitin carboxyl-terminal hydrolase BAP1 (Q92560 whole entry): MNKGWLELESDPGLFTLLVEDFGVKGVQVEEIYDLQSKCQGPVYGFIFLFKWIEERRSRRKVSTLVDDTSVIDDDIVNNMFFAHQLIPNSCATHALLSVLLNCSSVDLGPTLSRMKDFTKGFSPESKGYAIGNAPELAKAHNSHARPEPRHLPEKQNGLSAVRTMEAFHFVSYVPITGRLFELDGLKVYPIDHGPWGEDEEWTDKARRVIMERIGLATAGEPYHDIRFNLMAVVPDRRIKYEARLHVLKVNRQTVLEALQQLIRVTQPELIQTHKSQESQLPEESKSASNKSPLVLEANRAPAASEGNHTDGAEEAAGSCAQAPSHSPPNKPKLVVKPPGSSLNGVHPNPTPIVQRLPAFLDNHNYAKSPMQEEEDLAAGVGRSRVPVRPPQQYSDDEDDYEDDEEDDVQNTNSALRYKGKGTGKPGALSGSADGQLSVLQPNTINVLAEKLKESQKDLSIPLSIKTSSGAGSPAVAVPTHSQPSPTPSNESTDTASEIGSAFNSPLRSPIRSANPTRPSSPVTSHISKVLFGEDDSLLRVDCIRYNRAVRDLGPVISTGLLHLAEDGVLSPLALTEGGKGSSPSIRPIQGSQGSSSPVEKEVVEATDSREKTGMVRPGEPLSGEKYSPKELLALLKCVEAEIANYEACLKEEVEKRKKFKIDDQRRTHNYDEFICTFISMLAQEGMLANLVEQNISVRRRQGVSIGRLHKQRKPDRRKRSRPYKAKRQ
Sequence of Ubiquitin carboxyl-terminal hydrolase 7 (Q93009 whole entry): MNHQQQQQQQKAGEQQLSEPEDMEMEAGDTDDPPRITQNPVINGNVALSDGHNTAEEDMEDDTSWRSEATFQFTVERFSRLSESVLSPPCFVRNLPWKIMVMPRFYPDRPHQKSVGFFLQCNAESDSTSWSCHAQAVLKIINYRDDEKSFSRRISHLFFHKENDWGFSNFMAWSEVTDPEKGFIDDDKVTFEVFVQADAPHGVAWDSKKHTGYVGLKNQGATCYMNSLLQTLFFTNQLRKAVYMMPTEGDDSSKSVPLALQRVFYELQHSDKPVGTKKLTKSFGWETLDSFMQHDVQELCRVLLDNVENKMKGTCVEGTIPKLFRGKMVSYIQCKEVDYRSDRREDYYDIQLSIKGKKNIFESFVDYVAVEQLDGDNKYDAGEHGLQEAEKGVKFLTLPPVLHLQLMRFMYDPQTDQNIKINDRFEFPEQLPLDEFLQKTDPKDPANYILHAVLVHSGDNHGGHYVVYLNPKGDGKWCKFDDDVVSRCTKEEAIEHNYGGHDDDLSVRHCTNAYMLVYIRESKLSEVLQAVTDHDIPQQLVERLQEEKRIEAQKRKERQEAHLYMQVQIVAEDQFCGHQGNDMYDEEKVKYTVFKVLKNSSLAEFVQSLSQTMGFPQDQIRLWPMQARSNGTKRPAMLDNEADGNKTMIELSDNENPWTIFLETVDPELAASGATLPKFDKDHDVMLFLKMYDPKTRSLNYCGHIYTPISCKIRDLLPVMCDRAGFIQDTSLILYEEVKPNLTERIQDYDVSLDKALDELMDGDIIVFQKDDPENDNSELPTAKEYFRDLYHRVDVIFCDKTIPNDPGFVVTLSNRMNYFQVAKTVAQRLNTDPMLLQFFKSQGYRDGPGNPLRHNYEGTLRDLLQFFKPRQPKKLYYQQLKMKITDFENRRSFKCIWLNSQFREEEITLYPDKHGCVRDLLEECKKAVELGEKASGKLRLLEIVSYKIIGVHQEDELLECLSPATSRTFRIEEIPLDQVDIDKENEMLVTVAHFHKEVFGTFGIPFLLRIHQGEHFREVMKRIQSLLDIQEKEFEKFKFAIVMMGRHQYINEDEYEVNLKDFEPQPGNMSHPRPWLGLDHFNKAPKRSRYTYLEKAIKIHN
Sequence of Ataxin-3 (P54252 whole entry): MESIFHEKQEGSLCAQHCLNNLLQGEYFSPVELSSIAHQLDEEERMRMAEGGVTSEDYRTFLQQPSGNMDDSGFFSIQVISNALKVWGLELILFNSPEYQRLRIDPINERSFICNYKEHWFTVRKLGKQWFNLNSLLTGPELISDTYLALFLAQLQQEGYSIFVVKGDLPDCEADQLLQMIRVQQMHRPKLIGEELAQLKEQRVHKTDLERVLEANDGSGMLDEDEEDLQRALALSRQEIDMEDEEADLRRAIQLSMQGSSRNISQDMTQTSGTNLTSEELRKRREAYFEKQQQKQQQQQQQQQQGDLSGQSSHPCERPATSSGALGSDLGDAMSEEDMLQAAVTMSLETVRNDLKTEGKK
Sequence of Ubiquitin thioesterase OTU1 (Q5VVQ6 whole entry): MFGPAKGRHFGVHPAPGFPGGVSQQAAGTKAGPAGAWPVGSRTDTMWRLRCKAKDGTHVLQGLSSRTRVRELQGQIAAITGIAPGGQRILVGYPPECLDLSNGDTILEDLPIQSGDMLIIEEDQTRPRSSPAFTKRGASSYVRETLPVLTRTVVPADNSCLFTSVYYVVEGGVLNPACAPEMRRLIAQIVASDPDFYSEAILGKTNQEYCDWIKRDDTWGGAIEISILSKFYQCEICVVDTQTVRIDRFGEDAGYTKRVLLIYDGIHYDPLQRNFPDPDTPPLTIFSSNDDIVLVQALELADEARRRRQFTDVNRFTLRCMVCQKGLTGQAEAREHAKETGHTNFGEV

EC50 [1]: 0.065 µM
IC50 [2]: > 10 µM
IC50 [4]: > 10 µM
IC50 [5]: > 10 µM
IC50 [6]: > 10 µM
IC50 [7]: > 10 µM
IC50 [8]: > 10 µM
IC50 [9]: > 10 µM
SMILES: Cc1cc(Cl)cc(-c2ccnc3cc(CN4C(=O)C5C(C4=O)C5(C)C)sc23)c1O[C@@H]1CCNC[C@@H]1C (some centres undefined)
IC50 [3]: > 10 µM
